According to article PMC6651170, “New HSV-1 Anti-Viral 1′-Homocarbocyclic Nucleoside Analogs with an Optically Active Substituted Bicyclo[2.2.1]Heptane Fragment as a Glycoside Moiety” (Molecules, 2019):
≈ marks a conversion by molar mass, not a printed value. Where two headings read alike, the source gives them in different places.

Experiments:
[1] = test system: Influenza virus (Flu A, strain A/Puerto Rico/8/34 (H1N1)); test: microbe, parasite or virus in culture; assay type: cell-based; details: read-out: IC50 Influenza Virus
[2] = test system: herpes simplex virus type 1 (HSV-1); test: microbe, parasite or virus in culture; assay type: cell-based; details: for IC50: read-out: IC50 Herpes Simplex Virus Type 1
[3] = test system: human adenovirus type 5 (AdV5); test: microbe, parasite or virus in culture; assay type: cell-based; details: read-out: IC50 Human Adenovirus Type 5
Yellow Fever Virus = test: microbe, parasite or virus in culture; assay type: cell-based; details: read-out: IC50 Yellow Fever Virus
Chikungunya Virus = test: microbe, parasite or virus in culture; assay type: cell-based; details: read-out: IC50 Chikungunya Virus
Enterovirus 71 = test: microbe, parasite or virus in culture; assay type: cell-based; details: read-out: IC50 Enterovirus 71
in vitro [4] = details: dog
in vitro [5] = details: African green monkey
in vitro [6] = test: in vitro
in vitro [7] = test: in vitro; remark: listed apart in the source
in vitro [8] = test: in vitro; remark: listed apart in the source
HCMV = details: read-out: IC50 against HCMV; cited from earlier work
EpsteinBarr virus = details: read-out: IC50 against EpsteinBarr virus; cited from earlier work
VZV = details: cited from earlier work
herpes = details: cited from earlier work
Molt4/C8 = details: cited from earlier work
L1210/0 = details: cited from earlier work
VZV/TK^- strain = details: read-out: EC50 against VZV/TK- strain; cited from earlier work
cytomegalovirus AD169 = details: read-out: EC50 against cytomegalovirus AD169 strain; cited from earlier work
[9] = test system: cytomegalovirus DAVIS 07/1; details: read-out: EC50 against cytomegalovirus DAVIS 07/1 strain; cited from earlier work
coxsackievirus B4 = details: cited from earlier work
cells [10] = test system: cells
cells [11] = test system: cells; remark: listed apart in the source
cells [12] = test system: cells; remark: listed apart in the source
[13] = unidentified influenza virus, H1N1, MDCK, 48 h
[14] = Human alphaherpesvirus 1, Vero, 72 h
[15] = Human mastadenovirus C, Vero, 72 h
[16] = CC50 (Herpes Simplex Virus Type 1)

Compound: COc1ncnc2c1ncn2C[C@H]1[C@@H]2CC(O)[C@H]1C[C@@H]2Cl (stereo partly drawn) [Compound 7a, (1S,4S,5S,7R)-5-Chloro-7-((6-methoxy-9H-purin-9-yl)methyl)bicyclo[2.2.1]heptan-2-ol]
- IC50 [1, 13]: 233 ± 33 µM
- IC50 [2, 14]: > 972 µM
- IC50 [3, 15]: > 972 µM
- IC50 (Yellow Fever Virus; Yellow fever virus): > 100 µM
- IC50 (Chikungunya Virus; Chikungunya virus): > 100 µM
- IC50 (Enterovirus 71; Enterovirus A): > 100 µM
- CC50 (in vitro [4]): > 972 µM
- CC50 (in vitro [5]; [16]): > 972 µM
- CC50 (in vitro [5]; CC50 (Human Adenovirus Type 5)): > 972 µM
- CC50 (in vitro [6]): > 100 µM
- CC50 (in vitro [7]): > 100 µM
- CC50 (in vitro [8]): > 100 µM

Compound: CCOc1ncnc2c1ncn2C[C@H]1[C@@H]2CC(O)[C@H]1C[C@@H]2Cl (stereo partly drawn) [Compound 7b, (1S,4S,5S,7R)-5-Chloro-7-((6-ethoxy-9H-purin-9-yl)methyl)bicyclo[2.2.1]heptan-2-ol]
- IC50 [1, 13]: > 929 µM
- IC50 [2, 14]: 524 ± 63 µM
- IC50 [3, 15]: > 929 µM
- IC50 (Yellow Fever Virus; Yellow fever virus): > 100 µM
- IC50 (Chikungunya Virus; Chikungunya virus): > 100 µM
- IC50 (Enterovirus 71; Enterovirus A): > 100 µM
- CC50 (in vitro [4]): > 929 µM
- CC50 (in vitro [5]; [16]): > 929 µM
- CC50 (in vitro [5]; CC50 (Human Adenovirus Type 5)): > 929 µM
- CC50 (in vitro [6]): > 100 µM
- CC50 (in vitro [7]): > 100 µM
- CC50 (in vitro [8]): > 100 µM

Compound: Nc1ncnc2c1ncn2/C=C1/C[C@H]1CO [III]
- IC50 (HCMV): 1 to 2.1 µM
- IC50 (EpsteinBarr virus): 0.2 µM

Compound: O=c1[nH]c(=O)n(CC2(CO)CC2CO)cc1C=CBr (stereo not shown) [II]
- anti-VZV activity, IC50 (VZV): 0.027 µg/mL

Compound: Nc1nc2c(ncn2/C=C2/C[C@H]2CO)c(=O)[nH]1 [IV]
- IC50 (HCMV): 0.04 to 2.1 µM
- IC50 (EpsteinBarr virus): 0.3 µM

Compound: Nc1nc2c(ncn2CC2(CO)CC2CO)c(=O)[nH]1 (stereo not shown) [I]
- antiherpetic activity in words (herpes): extremely potent antiherpetic activity

Compound: Nc1nc(Cl)c2nc[nH]c2n1 [V (6-Cl-2-amino-purine)]
- IC50 Molt4/C8, cytostatic activity (Molt4/C8): 13.2 µg/mL (≈ 77.8 µM)
- IC50 L1210/0, cytostatic activity (L1210/0): 16.2 µg/mL (≈ 95.5 µM)

Compound: Nc1nc(Cl)c2nc[nH]c2n1 [VIII (6-Cl-2-aminopurine)]
- EC50 (VZV/TK^- strain): 2.1 µM
- EC50 (cytomegalovirus AD169): 0.44 µM
- EC50 [9]: 0.39 µM

Compound: OCC(Cc1ccccc1)Nc1ncnc2c1ncn2C1CC2C(Cl)CC1C2CO (stereo not shown) [Xc]
- EC50 against coxsackievirus B4 (coxsackievirus B4): 0.6 µg/mL (≈ 1.4 µM)

Compound: Nc1nc(O)c2ncn(COC(CO)CO)c2n1 [ganciclovir]
- EC50 (cytomegalovirus AD169): 0.25 µM
- EC50 [9]: 0.4 µM

Compound: (1S,4S,5S,7R)-5-Chloro-7-((6-((4-hydroxyphenethyl)amino)-9H-purin-9-yl)methyl)bicyclo[2.2.1]heptan-2-ol [Compound 6j]
- IC50 [1]: > 234 µM
- activity against HSV-1 in words [2]: active against herpes
- IC50 [2]: 15 ± 2 µM
- IC50 [3]: > 70 µM
- IC50 (Yellow Fever Virus): > 100 µM
- IC50 (Chikungunya Virus): > 100 µM
- IC50 (Enterovirus 71): 42 ± 3.2 µM
- CC50 (MDCK cells): 467 ± 28 µM
- CC50 (cells [10]): > 100 µM
- CC50 (cells [11]): > 100 µM
- CC50 (cells [12]): > 100 µM
